Measured values reported in US7939091B2, “Biorational repellents obtained from terpenoids for use against arthropods” (Iowa State University Research Foundation, Inc., priority 1999, dated 2011).

Assays:
Assay type in all cases: in vivo
[1] = test system: yellow fever mosquitoes, Aedes aegypti; experiment: Static-air repellency chamber, spatial and contact repellency, adult female yellow fever mosquitoes; settings: for long term repellency (in excess of two hours): Table 20, up to 360 min; for Average Percentage Repellency Over Time: application rate 78.6 μg/cm^2
Description: Test Equipment. In this testing, a static air repellency chamber was used. The apparatus consisted of a 9×60-cm section of glass tubing with a 2-cm hole drilled at the midpoint along the length for central introduction of the insects. All of the testing was conducted in an environmental chamber at ambient temperatures.
Test Methods. The data for spatial repellency was collected at 15 minutes after the introduction of female yellow fever mosquitoes into a static air repellency chamber. Data for the contact repellency was collected after three hours. The concentrations used in the tests are 1% solution (1 ml of it on a 9-cm diameter filter paper). One (1) ml of a 1% (wt/vol) solution of repellent substance containing hexane as a carrier was pipetted onto a 9-cm diameter filter paper results in a concentration of 157 μg/cm^2. The solution contained the desired mass of compound to be tested added to the desired volume of hexane, e.g., for a 1% solution of catnip essential oil, […] was added to 100 ml of hexane.
One milliliter of the solution was applied to one half of a 9-cm diameter round filter paper with an area of 63.6 cm^2 and then allowed to dry before testing. […] Treated filter papers were placed inside the lids of 9-cm glass petri dishes, and placed over the ends of the glass tube. The position of the treated side, to the right or to the left, was selected by using a random-number table. Approximately fifteen unmated adult female mosquitoes were anaesthetized with CO2 and then introduced to the 9×60-cm glass cylinder through the centered 2-cm hole. Timing began 2 minutes after mosquito introduction, and mosquito distribution inside the static-air choice-test apparatus was observed over a 15-minute period for each treatment to determine spatial repellency. Basically the number of mosquitoes in the non-treated half were considered to be repelled and were counted. Percent repellency was considered to be: (Number of Individuals on Untreated Half−Number of Individuals on Treated Half)/15)×100. Contact repellency was defined in this assay as 100% avoidance of the treated filter paper-after three hours. The experimental design was a completely randomized design using six replications of each treatment.
All test methods were the same as described in Example 7, except spatial repellency over a longer period.
Test Methods. […] Also only three replications were used instead of six.

[2] = test system: northern house mosquito, Culex pipiens; experiment: Mosquito residual repellency bioassay (aged treated filter papers), static-air chamber
Source text: Aged applications of catnip essential oil, elemol, DEET, and hexane (control) were compared in the static-air choice-test apparatus under the same conditions as described above. The 0.5% and 0.1% (wt/vol) solutions of each test solution were made to yield the same rate of active ingredient used in the above mosquito repellency bioassay. Individually treated filter papers were then placed in a fume hood and aged for 0, 30, 60, 120, or 180-minutes, allowing volatization to occur over a set period of time. After the specified ageing period, filter papers were placed on the inside of the 9-cm glass petri dish lids, and then placed over the ends of the glass tube. The position of the treated side was randomized. Approximately […] unmated adult female mosquitoes were anaesthetized with CO2 and then introduced to the 9×60-cm glass cylinder through the centered 2-cm hole. Timing began 2 minutes after mosquito introduction, and mosquito distribution (number of individuals on treated and untreated sides) inside the static-air choice-test apparatus was recorded after 15 minutes for determination of Percentage Repellency (calculations shown under Percentage and Contact Repellency Bioassay). Experimental design was completely randomized with three replications of each aged test solution. Analysis of variance was used to identify significant differences related to active ingredient, concentration, and ageing period. Regression analysis was used to examine percentage repellency relationship to filter paper ageing.

[3] = test system: German cockroach, Blattella germanica; experiment: Choice-test arena bioassay (contact irritancy), German cockroach, Example 6; settings: 300-second period
Description: A choice-test arena was used to assess irritancy of test solutions to two common household insect pests, the German cockroach (Blattella germanica) and the house fly (Musca domestica). Catnip essential oil obtained by steam distillation of catnip obtained from the same source as described in the above examples, and the two major components of its essential oil, Z,E-nepetalactone and E,Z-nepetalactone (isolated from the essential oil by preparative TLC), were evaluated for behavioral effects of contact irritancy to the German cockroach. The TLC was performed as described in McElvain, S. M. et al., J. Am. Chem. Soc., 1941, 63, 1558-1563. Catnip essential oil and its major constituent Z,E-nepetalactone were tested against the house fly. N,N-diethyl-m-toluamide (DEET) (Aldrich, St. Louis, Mo.) served as a positive control for the choice-test arena assay and as a point of comparison for measuring insect behavioral effects that result from current commercial insect repellents. Test solutions ranging from 10% to 0.1% (vol/vol) active ingredient (a.i.) were made up in acetone and then delivered on to a filter paper for solvent evaporation. […] Choice-test are for German cockroaches and house flies were constructed from plastic Petri dishes. One-half of a 12.5-cm dia. filter paper was treated with 1 ml test solution, and the other was treated with 1 ml of only solvent (control). Both halves of the filter paper were placed in the choice-test arena. Position of the treated filter paper was randomized using a random-number table.
Individual German cockroaches or house flies were placed in each choice-test arena through a centered hole in the lid of the Petri dish and evaluated for a 300-second period. The amount of time the insect spent on the treated and untreated filter papers were recorded and used to calculate a percentage repellency value: Percentage Repellency=((Time on Untreated-Time on Treated)/300)×100
Ten replicates of each treatment solution were tested for both German cockroaches and house flies. Details of this assay design and some results have previously been described.

[4] = 15.7 μg/cm^2 (0.1%), treatment aged 0 min
[5] = 15.7 μg/cm^2 (0.1%), treatment aged 30 min
[6] = 15.7 μg/cm^2 (0.1%), treatment aged 60 min
[7] = 15.7 μg/cm^2 (0.1%), treatment aged 120 min
[8] = 15.7 μg/cm^2 (0.1%), treatment aged 180 min
[9] = 78.6 μg/cm^2 (0.5%), treatment aged 0 min
[10] = 78.6 μg/cm^2 (0.5%), treatment aged 30 min
[11] = 78.6 μg/cm^2 (0.5%), treatment aged 60 min
[12] = 78.6 μg/cm^2 (0.5%), treatment aged 120 min
[13] = 78.6 μg/cm^2 (0.5%), treatment aged 180 min

CCN(CC)C(=O)c1cccc(C)c1 [DEET, N,N-diethyl-3-methylbenzamide, reference compound]
long term repellency (in excess of two hours) [1]: long term repellency
Average Percentage Repellency Over Time ([1]; 60 min): 64%
Average Percentage Repellency Over Time ([1]; 120 min): 47%
Average Percentage Repellency Over Time ([1]; 360 min): 49%
Average Percentage Repellency Over Time ([1]; Initial): 52%
Percentage Repellency Over Time [2, 4]: 54.9%
Percentage Repellency Over Time [2, 5]: 23.1%
Percentage Repellency Over Time [2, 6]: 45.7%
Percentage Repellency Over Time [2, 7]: 39%
Percentage Repellency Over Time [2, 8]: 70.6%
Percentage Repellency Over Time [2, 9]: 74.0%
Percentage Repellency Over Time [2, 10]: 37%
Percentage Repellency Over Time [2, 11]: 59%
Percentage Repellency Over Time [2, 12]: 77.7%
Percentage Repellency Over Time [2, 13]: 74%
Percentage Repellency ± SEM ([3]; application rate 80 μg/cm^2): 15.5 ± 5.4a %
Percentage Repellency ± SEM ([3]; application rate 160 μg/cm^2): 20.4 ± 9.2a %
Percentage Repellency ± SEM ([3]; application rate 800 μg/cm^2): 25.8 ± 9.5a %
Percentage Repellency ± SEM ([3]; application rate 1.60 mg/cm^2): 58.3 ± 10.5b %

C=CC1(C)CCC(C(C)(C)O)CC1C(=C)C (centres unmarked) [Elemol]
% repellency ([1]; 78.6 μg/cm^2 (equivalent to a 0.5% solution), determined at 15 minutes, three replications): 38.9%
Avoidance Frequency ([1]; Conc 1% (157 μg/cm^2), average of mosquito contact repellency over 3-hour time period): 97
Repellency (%) (15-minute spatial repellency) ([1]; Conc 1% (157 μg/cm^2), determined at 15 minutes, six replications): 63.6%
long term repellency (in excess of two hours) [1]: long term repellency
Average Percentage Repellency Over Time ([1]; 60 min): 52%
Average Percentage Repellency Over Time ([1]; 120 min): 43%
Average Percentage Repellency Over Time ([1]; 360 min): 35%
Average Percentage Repellency Over Time ([1]; Initial): 56%
spatial and contact repellency over a 6-hour time period ([1]; other data from our lab, 6-hour time period): good spatial and very good contact repellents
Percentage Repellency Over Time [2, 4]: 35.0%
Percentage Repellency Over Time [2, 5]: 30.8%
Percentage Repellency Over Time [2, 6]: 49%
Percentage Repellency Over Time [2, 7]: 20.7%
Percentage Repellency Over Time [2, 8]: 44.8%
Percentage Repellency Over Time [2, 9]: 84.7%
Percentage Repellency Over Time [2, 10]: 76.5%
Percentage Repellency Over Time [2, 11]: 96.5%
Percentage Repellency Over Time [2, 12]: 80.8%
Percentage Repellency Over Time [2, 13]: 76.5%
